Experimental data: patent US20230271950A1, “ANTIBACTERIAL PICOLINAMIDE COMPOUNDS” (University of Notre Dame Du Lac, priority 2020, published 2023)
Values after ≈ are worked out from the molar mass of the structure shown. Like-named read-outs stand apart in the source and are kept apart here.

Key:
Bifidobacterium longum = assay: MIC against gut bacterium Bifidobacterium longum; format: cell-based; conditions: Bifidobacterium longum, Bifidobacterium longum strain HM-846; Table 7; read-out: MIC
Corynebacterium spp. = assay: MIC against gut bacterium Corynebacterium spp.; format: cell-based; conditions: Corynebacterium, Corynebacterium spp. strain HM-784; Table 7
Bacteroides fragilis = assay: MIC against gut bacterium Bacteroides fragilis; format: cell-based; conditions: Bacteroides fragilis, Bacteroides fragilis strain HM-709; Table 7; read-out: MIC
MRSA (NRS70, NRS119) = assay: MIC against MRSA strains; format: cell-based, Staphylococcus aureus; conditions: Staphylococcus aureus
C. difficile = assay: MIC by broth microdilution against C. difficile strains; format: cell-based, Clostridioides difficile; conditions: for MIC: Clostridioides difficile
E. faecium NCTC7171 = assay: MIC against E. faecium; format: cell-based, Enterococcus faecium; conditions: Enterococcus faecium, NCTC7171; E. faecium NCTC 7171; Table 10, unit inferred; read-out: Activity (MIC) against E. faecium
S. aureus ATCC29213 = assay: MIC against MSSA; format: cell-based, Staphylococcus aureus; conditions: Staphylococcus aureus; MSSA ATCC 29213; Table 10, unit inferred; read-out: Activity (MIC) against S. aureus
Veillonella sp. HM-49 = assay: MIC against gut bacterium Veillonella sp.; format: cell-based; conditions: SP.HM49; Veillonella sp. strain HM-49; Table 7; read-out: MIC
Fusobacterium nucleatum = assay: MIC against gut bacterium Fusobacterium nucleatum; format: cell-based; conditions: Fusobacterium nucleatum, Fusobacterium nucleatum strain HM-992; Table 7; read-out: MIC
Eubacterium sp. = assay: MIC against gut bacterium Eubacterium sp.; format: cell-based; conditions: Eubacterium, Eubacterium sp. strain HM-178; Table 7; read-out: MIC
Lactobacillus reuteri = assay: MIC against gut bacterium Lactobacillus reuteri; format: cell-based; conditions: Limosilactobacillus reuteri; Lactobacillus reuteri strain HM-102; Table 7; read-out: MIC
Lactobacillus gasseri = assay: MIC against gut bacterium Lactobacillus gasseri; format: cell-based; conditions: Lactobacillus gasseri strain HM-644; Table 7; read-out: MIC
[1] = MRSA NRS70, Table 7, read-out: MIC
[2] = NRS70 strain, Table 3 (SAR^2 and SAR^3), read-out: MIC MRSA
[3] = ATCC43255, ATCC 43255, ribotype 087, Table 3 (SAR^2 and SAR^3), read-out: MIC C. difficile
[4] = ATCC43255, C. difficile ATCC43255, Table 7, read-out: MIC
[5] = ATCC43255, C. difficile ATCC 43255, read-out: MIC against C. difficile
[6] = ATCC43598, C. difficile ATCC43598, Table 7, read-out: MIC
[7] = BAA1801, C. difficile BAA-1801, Table 7, read-out: MIC
[8] = BAA1803, C. difficile BAA-1803, Table 7, read-out: MIC
[9] = BAA1804, C. difficile BAA-1804, Table 7, read-out: MIC
[10] = BAA1812, C. difficile BAA-1812, Table 7, read-out: MIC
[11] = BAA1814, C. difficile BAA-1814, Table 7, read-out: MIC
[12] = BAA1870, C. difficile BAA-1870, Table 7, read-out: MIC
[13] = C. difficile 23691 (VR, vancomycin-resistant), Table 7, read-out: MIC
[14] = C. difficile 23828 (FR, fidaxomicin-resistant), Table 7, read-out: MIC
[15] = C. difficile 24531 (VR, vancomycin-resistant), Table 7, read-out: MIC
[16] = C. difficile 24923 (VR, vancomycin-resistant), Table 7, read-out: MIC
[17] = C. difficile 26675 (MR, metronidazole-resistant), Table 7, read-out: MIC
[18] = C. difficile 27081 (FR, fidaxomicin-resistant), Table 7, read-out: MIC
[19] = C. difficile 27173 (MR, metronidazole-resistant), Table 7, read-out: MIC
[20] = C. difficile NR49292, Table 7, read-out: MIC
[21] = C. difficile NR49294, Table 7, read-out: MIC
[22] = C. difficile NR49302, Table 7, read-out: MIC
[23] = C. difficile NR49305, Table 7, read-out: MIC
[24] = C. difficile NR49310, Table 7, read-out: MIC
[25] = C. difficile NR49318, Table 7, read-out: MIC
[26] = C. difficile, Table 8, read-out: MIC
[27] = MIC MRSA NRS70/MIC C. difficile ATCC43255, Table 7
[28] = MIC MRSA/MIC C. difficile, Table 3

O=C(Nc1ncco1)c1ccnc(-c2ccc(Cl)c(Cl)c2)c1 [Compound 4, 2-(3,4-Dichlorophenyl)-N-(oxazol-2-yl)isonicotinamide]
MIC (Bifidobacterium longum): > 16 µg/mL
MIC (Corynebacterium spp.): 0.5 µg/mL (≈ 1.5 µM)
MIC (Bacteroides fragilis): 1 µg/mL (≈ 2.99 µM)
MIC (MRSA (NRS70, NRS119); [1]): 0.25 µg/mL (≈ 0.748 µM)
MIC (MRSA (NRS70, NRS119); NRS70 strain, Table 2 (SAR^1), read-out: MIC MRSA): 0.25 µg/mL (≈ 0.748 µM)
MIC (MRSA (NRS70, NRS119); [2]): 0.25 µg/mL (≈ 0.748 µM)
MIC (C. difficile; ATCC43255, ATCC 43255, ribotype 087, Table 2 (SAR^1), read-out: MIC C. difficile): 0.25 µg/mL (≈ 0.748 µM)
MIC (C. difficile; [3]): 0.25 µg/mL (≈ 0.748 µM)
MIC (C. difficile; [4]): 0.25 µg/mL (≈ 0.748 µM)
MIC (C. difficile; [5]): 0.25 µg/mL (≈ 0.748 µM)
MIC (C. difficile; [6]): 0.0625 µg/mL (≈ 0.187 µM)
MIC (C. difficile; [7]): 0.25 µg/mL (≈ 0.748 µM)
MIC (C. difficile; [8]): 0.5 µg/mL (≈ 1.5 µM)
MIC (C. difficile; [9]): 0.0625 µg/mL (≈ 0.187 µM)
MIC (C. difficile; [10]): 0.125 µg/mL (≈ 0.374 µM)
MIC (C. difficile; [11]): 0.125 µg/mL (≈ 0.374 µM)
MIC (C. difficile; [12]): ≤ 0.25 µg/mL
MIC (C. difficile; [13]): 0.25 µg/mL (≈ 0.748 µM)
MIC (C. difficile; [14]): 0.125 µg/mL (≈ 0.374 µM)
MIC (C. difficile; [15]): 0.125 µg/mL (≈ 0.374 µM)
MIC (C. difficile; [16]): 0.125 µg/mL (≈ 0.374 µM)
MIC (C. difficile; [17]): 0.25 µg/mL (≈ 0.748 µM)
MIC (C. difficile; [18]): 0.125 µg/mL (≈ 0.374 µM)
MIC (C. difficile; [19]): 0.125 µg/mL (≈ 0.374 µM)
MIC (C. difficile; [20]): 0.125 µg/mL (≈ 0.374 µM)
MIC (C. difficile; [21]): 0.0625 µg/mL (≈ 0.187 µM)
MIC (C. difficile; [22]): 0.0625 µg/mL (≈ 0.187 µM)
MIC (C. difficile; [23]): 0.125 µg/mL (≈ 0.374 µM)
MIC (C. difficile; [24]): 0.0625 µg/mL (≈ 0.187 µM)
MIC (C. difficile; [25]): 0.125 µg/mL (≈ 0.374 µM)
MIC (C. difficile; [26]): 0.25 µg/mL (≈ 0.748 µM)
Selectivity (C. difficile; [27]): 1
Selectivity (C. difficile; [28]): 1
Selectivity (C. difficile; Table 8): 1
MIC (E. faecium NCTC7171): 0.06 µg/mL (≈ 0.18 µM)
MIC (S. aureus ATCC29213): 0.06 µg/mL (≈ 0.18 µM)
MIC (Veillonella sp. HM-49): 4 µg/mL (≈ 12 µM)
MIC (Fusobacterium nucleatum): 8 µg/mL (≈ 23.9 µM)
MIC (Eubacterium sp.): > 16 µg/mL
MIC (Lactobacillus reuteri): 8 µg/mL (≈ 23.9 µM)
MIC (Lactobacillus gasseri): > 16 µg/mL

O=C(Nc1ncco1)c1cc(-c2ccc(Cl)c(Cl)c2)ccn1 [Compound 87, 4-(3,4-Dichlorophenyl)-N-(oxazol-2-yl)picolinamide]
MIC (Bifidobacterium longum): > 16 µg/mL
MIC (Corynebacterium spp.): 16 µg/mL (≈ 47.9 µM)
MIC (Bacteroides fragilis): 4 µg/mL (≈ 12 µM)
MIC (MRSA (NRS70, NRS119); [1]): 128 µg/mL (≈ 383 µM)
MIC (MRSA (NRS70, NRS119); MRSA strain NRS70, read-out: MIC against MRSA): 128 µg/mL (≈ 383 µM)
MIC (MRSA (NRS70, NRS119); [2]): 128 µg/mL (≈ 383 µM)
MIC (C. difficile; [3]): 0.125 µg/mL (≈ 0.374 µM)
MIC (C. difficile; [4]): 0.125 µg/mL (≈ 0.374 µM)
MIC (C. difficile; [5]): 0.125 µg/mL (≈ 0.374 µM)
MIC (C. difficile; [6]): 0.25 µg/mL (≈ 0.748 µM)
MIC (C. difficile; [7]): 0.25 µg/mL (≈ 0.748 µM)
MIC (C. difficile; [8]): 0.25 µg/mL (≈ 0.748 µM)
MIC (C. difficile; [9]): 0.125 µg/mL (≈ 0.374 µM)
MIC (C. difficile; [10]): 0.25 µg/mL (≈ 0.748 µM)
MIC (C. difficile; [11]): 0.125 µg/mL (≈ 0.374 µM)
MIC (C. difficile; [12]): 0.25 µg/mL (≈ 0.748 µM)
MIC (C. difficile; [13]): 0.5 µg/mL (≈ 1.5 µM)
MIC (C. difficile; [14]): 0.25 µg/mL (≈ 0.748 µM)
MIC (C. difficile; [15]): 0.25 µg/mL (≈ 0.748 µM)
MIC (C. difficile; [16]): 0.5 µg/mL (≈ 1.5 µM)
MIC (C. difficile; [17]): 0.5 µg/mL (≈ 1.5 µM)
MIC (C. difficile; [18]): 0.5 µg/mL (≈ 1.5 µM)
MIC (C. difficile; [19]): 0.5 µg/mL (≈ 1.5 µM)
MIC (C. difficile; [20]): 0.25 µg/mL (≈ 0.748 µM)
MIC (C. difficile; [21]): 0.25 µg/mL (≈ 0.748 µM)
MIC (C. difficile; [22]): 0.25 µg/mL (≈ 0.748 µM)
MIC (C. difficile; [23]): 0.25 µg/mL (≈ 0.748 µM)
MIC (C. difficile; [24]): 0.125 µg/mL (≈ 0.374 µM)
MIC (C. difficile; [25]): 0.25 µg/mL (≈ 0.748 µM)
MIC (C. difficile; [26]): 0.125 µg/mL (≈ 0.374 µM)
Selectivity (C. difficile; [27]): 1024
Selectivity (C. difficile; [28]): 1024
Selectivity (C. difficile; Table 8): 1024
MIC (E. faecium NCTC7171): ≥ 128 µg/mL
MIC (S. aureus ATCC29213): ≥ 128 µg/mL
MIC (Veillonella sp. HM-49): 16 µg/mL (≈ 47.9 µM)
MIC (Fusobacterium nucleatum): 8 µg/mL (≈ 23.9 µM)
MIC (Eubacterium sp.): 8 µg/mL (≈ 23.9 µM)
MIC (Lactobacillus reuteri): 4 µg/mL (≈ 12 µM)
MIC (Lactobacillus gasseri): > 16 µg/mL

O=C(Nc1ncco1)c1cc(Oc2cccc(OC(F)(F)F)c2)ccn1 [Compound 108, N-(Oxazol-2-yl)-4-(3-(trifluoromethoxy)phenoxy)picolinamide]
MIC (Bifidobacterium longum): 16 µg/mL (≈ 43.8 µM)
MIC (Corynebacterium spp.): > 16 µg/mL
MIC (Bacteroides fragilis): 8 µg/mL (≈ 21.9 µM)
MIC (MRSA (NRS70, NRS119); [1]): 64 µg/mL (≈ 175 µM)
MIC (C. difficile; [4]): 1 µg/mL (≈ 2.74 µM)
MIC (C. difficile; [6]): 0.5 µg/mL (≈ 1.37 µM)
MIC (C. difficile; [7]): 0.25 µg/mL (≈ 0.684 µM)
MIC (C. difficile; [8]): 0.5 µg/mL (≈ 1.37 µM)
MIC (C. difficile; [9]): 0.25 µg/mL (≈ 0.684 µM)
MIC (C. difficile; [10]): 1 µg/mL (≈ 2.74 µM)
MIC (C. difficile; [11]): 0.25 µg/mL (≈ 0.684 µM)
MIC (C. difficile; [12]): 0.5 µg/mL (≈ 1.37 µM)
MIC (C. difficile; [13]): 0.25 µg/mL (≈ 0.684 µM)
MIC (C. difficile; [14]): 1 µg/mL (≈ 2.74 µM)
MIC (C. difficile; [15]): 0.25 µg/mL (≈ 0.684 µM)
MIC (C. difficile; [16]): 0.25 µg/mL (≈ 0.684 µM)
MIC (C. difficile; [17]): 1 µg/mL (≈ 2.74 µM)
MIC (C. difficile; [18]): 0.25 µg/mL (≈ 0.684 µM)
MIC (C. difficile; [19]): 0.5 µg/mL (≈ 1.37 µM)
MIC (C. difficile; [20]): 0.25 µg/mL (≈ 0.684 µM)
MIC (C. difficile; [21]): 0.25 µg/mL (≈ 0.684 µM)
MIC (C. difficile; [22]): 1 µg/mL (≈ 2.74 µM)
MIC (C. difficile; [23]): 0.25 µg/mL (≈ 0.684 µM)
MIC (C. difficile; [24]): 0.5 µg/mL (≈ 1.37 µM)
MIC (C. difficile; [25]): 0.5 µg/mL (≈ 1.37 µM)
MIC (C. difficile; [26]): 1 µg/mL (≈ 2.74 µM)
Selectivity (C. difficile; [27]): 64
Selectivity (C. difficile; Table 8): 64
MIC (E. faecium NCTC7171): 64 µg/mL (≈ 175 µM)
MIC (S. aureus ATCC29213): 64 µg/mL (≈ 175 µM)
MIC (Veillonella sp. HM-49): 16 µg/mL (≈ 43.8 µM)
MIC (Fusobacterium nucleatum): 8 µg/mL (≈ 21.9 µM)
MIC (Eubacterium sp.): 8 µg/mL (≈ 21.9 µM)
MIC (Lactobacillus reuteri): 4 µg/mL (≈ 11 µM)
MIC (Lactobacillus gasseri): > 16 µg/mL
